Source: PubChem BioAssay (NCI)
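Where inhibition never reached the appropriate level, the endpoint shown equals the highest concentration tested. Otherwise, values were interpolated linearly from a five-concentration, 48-hour dose response in 96-well plates. GI50 = concentration required for 50% inhibition of growth. TGI is the concentration that stops growth completely.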

These molecules were tested on MDA-MB-468 breast (assay: growth of human tumour cells (NCI), 48 h).

| SMILES | GI50 | TGI |
| --- | --- | --- |
| CCCCCc1ccc(S(=O)(=O)Nc2cc(-c3csc(NC(=O)CN4CCN(CCO)CC4)n3)ccc2OC)cc1 | 1.75 µM | 3.6 µM |
| N#Cc1ccc(OC(=O)Nc2ccc(Cl)c(Cl)c2)cc1 | 3.13 µM | 15.9 µM |
| Nc1ccccc1SC1CC(=O)N(c2ccc(Cl)c(Cl)c2)C1=O (stereo unspecified) | 18.4 µM | > 100 µM |
| CN1CCN(Cc2ccc(NC(=O)c3cncc(C#Cc4cnc5[nH]ncc5c4)c3)cc2C(F)(F)F)CC1 | 1.74 µM | 13.5 µM |
| COC[C@]12CC[C@@H](C)[C@H](C)[C@H]1C1=CC[C@@H]3[C@@]4(C)CCCNC(C)(C)[C@@H]4CC[C@@]3(C)[C@]1(C)CC2 | 1.71 µM | 3.43 µM |
| COc1ccc2c(c1)C(C)Cc1c(ncnc1-n1cnc3cc(C)ccc31)N2C (stereo unspecified) | 0.0341 µM | 18.9 µM |
| O=C(OCc1ccc2c(Cl)cc(Cl)c(O)c2n1)N1CCN(C(=O)c2cc3cc(F)ccc3[nH]2)CC1 | 0.558 µM | > 27.9 µM |
| C/C(=N\NC(=S)N1CC2CCC(CC2)C1)c1ccccn1 | < 0.01 µM | 0.104 µM |
| COc1ccc2c(c1)c(-c1cc(N)n3nc(-c4cn(C)c5ccc(OC)cc45)cc3n1)cn2C | 1.87 µM | 3.66 µM |
| Cc1cc(C)n(-c2nnc3n2N=C(c2ccc(-c4ccccc4)cc2)CS3)n1 | 2.27 µM | 6.76 µM |
| COC(=O)CCC1=C(CC(=O)OC)C(C)=N/C1=C\c1[nH]c(-c2ccc[nH]2)cc1OC | 3.48 µM | 17 µM |
| NC(=S)N/N=C/c1cc(-c2cccc(N)c2)ccn1 | 1.43 µM | 4.49 µM |
| COc1ccc2c(Oc3ccc(NC(=O)c4c(C)n(CC(C)(C)O)n(-c5ccccc5)c4=O)nc3)ccnc2c1 | 16.1 µM | > 96.6 µM |
| Clc1cc(Cl)cc(Nc2ccc3cc(OCCCN4CCOCC4)ccc3n2)c1 | 2.2 µM | 6.23 µM |
| CCCCCc1ccc(S(=O)(=O)Nc2cc(-c3csc(NC(C)=O)n3)ccc2N2CCN(C)CC2)cc1 | 3.73 µM | 8.42 µM |
| Cn1cc(-c2ccc(-c3cncc(Cl)c3N3CCC4(CCNC4=O)CC3)cc2)cn1 | 19.9 µM | > 100 µM |
| COc1ccc(Cc2cnc(NC(=O)c3ccc4c(c3)OCCO4)s2)cc1 | 0.0376 µM | 24.7 µM |
| CC1C(c2ccc3c(c2)OCO3)c2cc3c(cc2OC1N1CCOCC1)OCO3 (stereo unspecified) | 19.6 µM | 60.3 µM |
| COc1c(O)c(O)cc2c1-c1ccc(OC)c(=O)cc1C(NC(C)=O)CC2 (stereo unspecified) | 16.9 µM | > 100 µM |

| SMILES | GI50 | TGI |
| --- | --- | --- |
| Cc1c2ccncc2c(C)c2c1[nH]c1ccccc12 | 1.16 µM | 8.74 µM |
| O=C(N/N=C/c1c(Cl)cccc1Cl)c1ccc(C(F)(F)F)nc1Nc1cccc(C(F)(F)F)c1 | 0.52 µM | 3.62 µM |
| O=C1C(c2ccccc2)=C(N2CCc3ccccc32)OC1(Cl)Cl | 1.63 µM | 3.25 µM |
| O=C(NCc1ccc(S(=O)(=O)c2cc(F)cc(F)c2)cc1)c1ccc2nccn2c1 | 9.27 µM | > 100 µM |
| O=C(N/N=C/c1ccc([N+](=O)[O-])o1)c1ccc(O)cc1 | 2.44 µM | 10.7 µM |
| CCCCCCCCCCN1CCC(N2CCCCC2)CC1 | 1.44 µM | 3.01 µM |
| O=C(CCCCCCNC(=O)C(O)(O)C(F)(F)F)Nc1ncc(-c2ccccc2)s1 | 0.748 µM | 10.9 µM |
| CC/C=C/C/C=C/C/C=C/C/C=C/C/C=C/C/C=C/CCC(=O)Nc1ccn([C@@H]2O[C@H](CO)[C@@H](O)C2(F)F)c(=O)n1 | 0.384 µM | > 64.6 µM |
| CN1CCN(c2ccc(Nc3ncc4cc(C#N)c(=O)n(C5CCCC5)c4n3)cc2)CC1 | 3.46 µM | > 100 µM |
| O=C(NO)c1ccc(CN(c2cnccn2)c2cnccn2)cc1 | 10.5 µM | 28.4 µM |
| COC(C(=O)[C@@H](O)[C@@H](C)O)[C@@H]1Cc2cc3cc(O[C@H]4C[C@@H](O[C@H]5C[C@@H](O)[C@H](O)C(C)O5)[C@H](O)C(C)O4)c(C)c(O)c3c(O)c2C(=O)[C@H]1O[C@H]1C[C@@H](O[C@H]2C[C@@H](O[C@H]3C[C@@H](O)[C@H](OC)C(C)O3)[C@@H](O)C(C)O2)[C@H](O)C(C)O1 (stereo partly specified) | 0.0329 µM | 0.259 µM |
| O=C(Nc1ccc(-n2cc(-c3ccncc3)c(-c3ccc(O)c(Cl)c3)n2)cc1)Nc1cccc(Cl)c1Cl | 9.23 µM | > 32.5 µM |
| COc1ccc(/C=C(/c2ccccc2)[N+](=O)[O-])cc1 | 1.46 µM | 3.31 µM |
| O=c1oc2ccc(Br)cc2c(=O)n1-c1ccc(F)cc1F | 2.09 µM | 5.92 µM |
| CCN(CC)c1cc2oc3cc(N)cc(=N)c-3nc2cc1C | 2.59 µM | 9.37 µM |
| COc1ccc(-c2csc(NC(=O)CSc3nc(C)c(-c4ccccc4)n3Nc3ccccc3)n2)cc1 | > 100 µM | > 100 µM |
| Cn1c(=O)c2c(ncn2CC(=O)Nc2ccc(-c3ccccc3)nn2)n(C)c1=O | 31.4 µM | > 100 µM |
| O=C(Nc1ccc(Cl)c(Cl)c1)Nc1ccccc1O | 6.26 µM | 33.6 µM |
| C[C@]12CC[C@@H]3c4ccc(O)c([N+](=O)[O-])c4CC[C@H]3[C@@H]1CC[C@@H]2NS(=O)(=O)c1cccc(Br)c1 | 2.74 µM | 7.69 µM |
